Like-named read-outs stand apart in the source and are kept apart here.
Tests used:
[1] = tested on: human cervical carcinoma Hela cells; test: MTT anti-tumor test in vitro, Hela; type: cell-based; details: for IC50 value: Hela, MTT, 48 hours
Description: (§1) A complete culture medium is used for diluting the above original solution into corresponding concentrations for later use.
(§2) Human cervical carcinoma Hela cells, human hepatoma BEL-7402 cells, mucinous Human epidermoid A549 lung cancer cells, human breast cancer MCF-7/S cells, human glioma U251 cells, and human normal embryonic kidney HEK-293 cells are purchased from USA, American Type Culture Collection (ATCC). All the tumor cells are used the DMEM medium (containing 10% FBS, 100 U/ml penicillin and 100 μg/ml streptomycin) for culturing and subculturing, and HEK-293 cells are using RPMI1640 medium (10% FBS, 100 U/ml penicillin, and 100 μg/ml streptomycin) for culturing and subculturing, wherein the culture condition is in a 5% CO2 incubator at 37° C.
(§3) Subculture six kinds of cells, which has a logarithmic growing period, adherent rate about 80%, and in good condition, such as human cervical carcinoma Hela cells, human hepatoma BEL-7402 cells, mucinous Human epidermoid A549 lung cancer cells, human breast cancer MCF-7/S cells, human glioma U251 cells, and human normal embryonic kidney HEK-293 cells. Discard the culture medium, rinse 1-2 times with PBS to remove serum, add 1 ml 0.25% Trypsin-0.01% EDTA (37° C. incubation) to digest for 1-2 minutes, add FBS culture medium to terminate the above digestion, centrifuge at a speed below 800 r/min for 2-3 minutes and discard the supernatant, re-suspended cells in 10% FBS medium, tack the cell suspension liquid for cell counting, adjust the density of the above liquid to 1×10^5/ml, then inoculate to a 96-holes plates (100 μl/hole), and then incubate in 5% CO2 incubator at 37° C. overnight. The next day add above cells to different concentrations of I-a, I-b, I-c and I-d, 100 μl/hole (its final concentration is respectively 30, 60, 120, 240, 480 μg/ml); meanwhile, set up the blank control group (0 μM), and establish 3 holes. Continuing the cultural process, discard the culture medium after 48 hours that the drug has been effected, add 100 μl PBS of 0.5 mg/ml MTT (PH 7.2) into each holes, after 4 hours culture, remove the culture medium by adherent cells express flipping method, add 100 μl of DMSO to each holes, oscillate it by micro-oscillation device for 5 minutes, and measure the OD value at 490 nm wavelength. Repeat the above experiment three times to get an average value. Calculate the inhibition rate (IR %) of the tumor cell proliferation in vitro from different concentrations of I-a, I-b, I-c, I-d by the following formula:
(§4) IR %=(1−ODsampale/ODcontrol)×100%
(§5) Use SPSS11.5 software to calculate the half inhibitory concentration IC50 of I-a, I-b, I-c and I-d. The results are shown in Table 2 to illustrate IC50 values (unit: μg/ml) of the four compounds.

[2] = tested on: mucinous Human epidermoid A549 lung cancer cells; test: MTT anti-tumor test in vitro, A549; type: cell-based; details: for IC50 value: A549, MTT, 48 hours
Description: as §1, §2, §3, §4, §5

[3] = tested on: human hepatoma BEL-7402 cells; test: MTT anti-tumor test in vitro, BEL-7402; type: cell-based; details: Bel- (BEL-7402)
Description: as §1, §2, §3, §4, §5

human glioma U251 cells = test: MTT anti-tumor test in vitro, U251; type: cell-based
Description: as §1, §2, §3, §4, §5

[4] = tested on: human breast cancer MCF-7/S cells; test: MTT anti-tumor test in vitro, MCF-7/S; type: cell-based; details: MCF-7 (MCF-7/S)
Description: as §1, §2, §3, §4, §5

[5] = tested on: human normal embryonic kidney HEK-293 cells; test: MTT test on normal cells, HEK-293; type: cell-based; details: HEK- (HEK-293), MTT, 48 hours
Description: as §1, §2
Subculture six kinds of cells, which has a logarithmic growing period, adherent rate about 80%, and in good condition, such as human cervical carcinoma Hela cells, human hepatoma BEL-7402 cells, mucinous Human epidermoid A549 lung cancer cells, human breast cancer MCF-7/S cells, human glioma U251 cells, and human normal embryonic kidney HEK-293 cells. […] Repeat the above experiment three times to get an average value.
as §4

[6] = tested on: mice ascites hepatoma cell strain H22; test: Anti-tumor test in vivo, mice transplanted tumor of liver cancer H22; parameters: species or system Kunming mice
Method: The mice ascites hepatoma cell strain H22 is purchased from the Experimental Center of Zhongshan University.
Recovery the mice ascites hepatoma cell strain H22, put the cell suspension liquid into a centrifugal tube and use the 4° C. saline to wash the suspension liquid twice, then centrifuge to discard the supernatant, add appropriate 4° C. saline to dilute the suspension liquid, count cells with 0.2% trypan blue, adjust the density to 10^7 cell/ml, according to 0.2 (ml/mice) intraperitoneal inoculation H22 cell suspension liquid.
After ten days of the intraperitoneal inoculation, the cervical vertebra is dislocated. Disinfect the mice abdominal skin, and suck the milky ascites with a sterile syringe, then adjust the concentration of tumor cells to 1×10^7 cell/ml with injection used saline. Disinfect the right armpit skin of the Kunming mice with alcohol swab, subcutaneously vaccinate the cell suspension liquid 0.2 ml, conventional feeding. […] Totally there are 180 tumor-bearing mice.
(§6) The 180 tumor-bearing mice are divided into 18 groups by the weigh of the mice, wherein each group has 10 mice (half male and half female). The drug delivery methods of each group are shown in Table 3 to illustrate eighteen groups of mice drug delivery situation.
Group 1 is the model group, and the mice of group 1 are given the tail vein saline injection daily started on the second day of the tumor-bearing for 10 days.
(§7) Group 2 is the cyclophosphamide (CTX) group, and the mice of group 2 are only given the cyclophosphamide in the intraperitoneal of the mice on the second day of the tumor-bearing.
(§8) Group 3 to 18 groups are given the four compounds respectively, wherein the groups delivered 25 mg/kg drug are tail vein low-dose group, wherein the groups delivered 50 mg/kg drugs are the tail vein medium-dose group, wherein the groups delivered 100 mg/kg drugs are the tail vein high-dose group, wherein the groups delivered 200 mg/kg drugs are the oral enteral group. These mice from group 3 to 18 start the drug delivery on the second day of the tumor-bearing, and delivered once a day for 10 sequent days.
The above drug deliveries are 20 ml/kg.
After finishing the drug delivery process, weight the mice, then kill the mice by pulling off the neck, and anatomy to get the tumor tissue of the mice on the next day of finishing the drug delivery process, and then weight the anatomized tumor by electronic weighing scales to calculate the inhibition rate.

[7] = Description: as §6, §7, §8
After the drug delivery, weight the mice weight, then execute the mice, and then weight the spleen and thymus weight by electronic weighting scale respectively. The spleen index and thymus index are the weight (mg) of mice spleen, thymus of each group/mice weight (g).

[8] = single tail vein administration 350 mg/kg
[9] = average of three experiments ± SD
[10] = average of three experiments ± SD, 48 hours
[11] = ip. 60/single mg/kg on the second day of tumor-bearing
[12] = ip. 60/single mg/kg on the second day of tumor-bearing, H22 tumor-bearing mice

With “2,4-dimethoxy-3-isopentenyl-cinnamic acid (E:Z=1:1) [I-d]” as the molecule, how does the IC50 value [1, 9] read?
Its IC50 value is 153.59 ± 13.03 µg/mL.

What about the IC50 value ([1]; experiment 1) of the same molecule?
Its IC50 value is 144 µg/mL.

And the IC50 value ([1]; experiment 2)?
Its IC50 value is 149 µg/mL.

What about the “HeLa cell proliferation IC50 values” ([1]; at 48 hours) of the same molecule?
The value was 148.59 ± 5.96 µg/mL.

What about the IC50 value ([2]; experiment 1) of the same molecule?
Its IC50 value is 190 µg/mL.

What about the IC50 value ([2]; experiment 2) of the same molecule?
Its IC50 value is 183 µg/mL.

And the “A549 cell proliferation IC50 values” ([2]; at 48 hours)?
Its value is 184.56 ± 5.80 µg/mL.

And the IC50 value [3, 10]?
The IC50 value was 216.72 ± 5.07 µg/mL.

And the IC50 value ([3]; experiment 1, 48 hours)?
Its IC50 value is 221 µg/mL.

And the IC50 value ([3]; experiment 2, 48 hours)?
Its IC50 value is 211 µg/mL.

And the IC50 value (human glioma U251 cells; [10])?
Its IC50 value is 204.44 ± 9.50 µg/mL.

What about the IC50 value (human glioma U251 cells; experiment 1, 48 hours) of the same molecule?
Its IC50 value is 210 µg/mL.

What about the IC50 value (human glioma U251 cells; experiment 2, 48 hours) of the same molecule?
The IC50 value was 193 µg/mL.

And the IC50 value [4, 10]?
Its IC50 value is 193.46 ± 7.57 µg/mL.

What about the IC50 value ([4]; experiment 1, 48 hours) of the same molecule?
The IC50 value was 200 µg/mL.

And the IC50 value ([4]; experiment 2, 48 hours)?
The IC50 value was 196 µg/mL.

And the IC50 value [5, 9]?
The IC50 value was 350.77 ± 14.09 µg/mL.

And the IC50 value ([5]; experiment 1)?
Its IC50 value is 347 µg/mL.

What about the IC50 value ([5]; experiment 2) of the same molecule?
Its IC50 value is 366 µg/mL.

And the Tumor weight/g ([6]; i.g. 200 mg·(kg·d)^−1, once a day for 10 days)?
Its Tumor weight/g is 0.991 ± 0.410 g.

And the Tumor weight/g ([6]; i.v. 25 mg·(kg·d)^−1, once a day for 10 days)?
Its Tumor weight/g is 1.307 ± 0.436 g.

What about the “IR/% (inhibition rate)” value ([6]; i.v. 25 mg·(kg·d)^−1, once a day for 10 days (low-dose group)) of the same molecule?
The value was 14.7%.

And the Tumor weight/g ([6]; i.v. 50 mg·(kg·d)^−1, once a day for 10 days)?
The Tumor weight/g was 1.068 ± 0.437 g.

And the “IR/% (inhibition rate)” value ([6]; i.v. 50 mg·(kg·d)^−1, once a day for 10 days (medium-dose group))?
The value was 30.3%.

And the Tumor weight/g ([6]; i.v. 100 mg·(kg·d)^−1, once a day for 10 days)?
Its Tumor weight/g is 0.901 ± 0.425 g.

What about the “IR/% (inhibition rate)” value ([6]; i.v. 100 mg·(kg·d)^−1, once a day for 10 days (high-dose group)) of the same molecule?
Its value is 41.2%.

And the “Mice weight/g After drug delivery” value ([7]; mouse, in vivo)?
The value was 20.0 ± 2.1 g.

And the “Mice weight/g Before drug deli.” value ([7]; mouse, in vivo)?
Its value is 24.6 ± 2.9 g.

And the “effect near the tail vein of the mice and its surrounding tissue” value ([7]; mouse, in vivo)?
The value was “irritation or corrosive”.

What about the “general observation after injection (central nervous signs)” value ([7]; mouse, in vivo) of the same molecule?
Its value is “central nerve inhibition phenomenon”.

And the “splenomegaly of the tumor-bearing mice” value ([7]; mouse, in vivo)?
Its value is “can cause the splenomegaly”.

What about the “drug reaction after administration” value [8] of the same molecule?
Its value is “abnormally excited at first, and then become in an inhibit state”.

Which results are given for `O=P1(N(CCCl)CCCl)NCCCO1` (centres unmarked) [CTX, cyclophosphamide, reference compound]?
IR/% (inhibition rate) [6, 11]: 55.2%; Tumor weight/g [6, 11]: 0.686 ± 0.303 g; Mice weight/g After drug delivery [7, 12]: 19.6 ± 2.0 g; Mice weight/g Before drug deli. [7, 12]: 23.6 ± 1.8 g; Spleen index/mg · g^−1 [7, 12]: 3.00 ± 0.59 mg/g; Thymus index/mg · g^−1 [7, 12]: 2.46 ± 0.65 mg/g

Reference: patent publication US20110028758A1, “Trans-cinnamic acid derivative, its preparation mathod and the use” (priority 2007, published 2011)
